The nature of test [1]: Inhibition of rat PFT.
A short description of test [2]: Inhibition of Plasmodium falciparum PFT.
A further test relates to Plasmodium falciparum. Kind of test: Antiplasmodial activity against Plasmodium falciparum 3D7. The format is functional, organism-based.

Take `Cc1ccccc1CN(C1Cc2cc(C#N)ccc2N(Cc2cncn2C)C1)S(=O)(=O)c1cn(C)cn1` (stereo unspecified): the pIC50 (commonly the negative decadic logarithm of the IC50, by convention in mol/L) in test [1] was determined as 8.47; in test [2], 8.82. The half-inhibitory concentration (IC50) (commonly the point on the concentration scale where inhibition reaches its midpoint) in the test with Plasmodium falciparum was 0.055 µM.

On to `Cn1cncc1CN1CC(N(Cc2cc3nsnc3cc2Cl)S(=O)(=O)c2ccccn2)Cc2cc(C#N)ccc21` (stereo unspecified), for which the negative logarithm of the IC50 (pIC50) in test [1] was found to be 8; in test [2], 7.26. In the test with Plasmodium falciparum, this molecule showed an IC50 of 3.02 µM.

Regarding `Cn1cnc(S(=O)(=O)N(CC2CCN(C(=O)OC(C)(C)C)CC2)C2Cc3cc(C#N)ccc3N(Cc3cncn3C)C2)c1` (stereo unspecified), the pIC50 came to 8.5 in test [1] and 8.96 in test [2]. The same molecule had an IC50 with Plasmodium falciparum of 0.1 µM.

`Cn1cncc1CN1CC(N(CC(=O)NC(C)(C)C)S(=O)(=O)c2cccnc2)Cc2cc(C#N)ccc21` (stereo unspecified): the pIC50 is recorded as 8.22 in test [1] and 7.6 in test [2]. Besides, in the test on Plasmodium falciparum, the IC50 is 2.69 µM.

Regarding `Cn1cncc1CN1CC(N(CC(=O)NC(C)(C)C)S(=O)(=O)c2ccncc2)Cc2cc(C#N)ccc21` (stereo unspecified), the values for the pIC50 in test [1] and in test [2] were 6.8 and 6, respectively. In addition, the IC50 in the test with Plasmodium falciparum was > 5.01 µM.

As to `C=C(C)CN(C1Cc2cc(C#N)ccc2N(Cc2cncn2C)C1)S(=O)(=O)c1cn(C)cn1` (stereo unspecified), the results for the negative logarithm of the IC50 (pIC50) in test [1] and in test [2] were 9.16 and 9.22, respectively. The molecule also showed a 50% inhibitory concentration (IC50) with Plasmodium falciparum of 0.00692 µM.

As for `Cn1cncc1CN1CC(N(CC(=O)NC(C)(C)C)S(=O)(=O)c2nccn2C)Cc2cc(C#N)ccc21` (stereo unspecified), the pIC50 amounted to 8.3 in test [1] and 8.1 in test [2]. Besides, the IC50 in the test with Plasmodium falciparum is > 5.01 µM.

Turning to `Cn1cnc(S(=O)(=O)N(CC(=O)OC(C)(C)C)C2Cc3cc(C#N)ccc3N(Cc3cncn3C)C2)c1` (stereo unspecified), the pIC50 in test [1] stood at 8.92; in test [2], 9.05. The molecule further showed an IC50 in the test on Plasmodium falciparum of 0.00501 µM.

Turning to `C=C(Br)CN(C1Cc2cc(C#N)ccc2N(Cc2cncn2C)C1)S(=O)(=O)c1cn(C)cn1` (stereo unspecified), the negative logarithm of the IC50 (pIC50) in test [1] was 9.1; in test [2], 9.4. In addition, the IC50 in the test on Plasmodium falciparum is 0.00603 µM.

In the case of `Cn1cncc1CN1CC(N(CC(=O)NC(C)(C)C)S(=O)(=O)c2ccccn2)Cc2cc(C#N)ccc21` (stereo unspecified), the pIC50 worked out at 8.75 in test [1] and 8.85 in test [2]. For the same molecule, inhibition with Plasmodium falciparum was half-maximal at 0.0851 µM (IC50).

On to `Cn1cnc(S(=O)(=O)N(Cc2ccccc2)C2Cc3cc(C#N)ccc3N(Cc3cncn3C)C2)c1` (stereo unspecified), for which the pIC50 in test [1] turned out to be 8.92; in test [2] it was 9.22. This molecule gave a half-maximal inhibitory concentration (IC50) in the test with Plasmodium falciparum of 0.00501 µM.

In the case of `Cn1cncc1CN1CC(N(Cc2ccc3ccccc3c2Br)S(=O)(=O)c2ccccn2)Cc2cc(C#N)ccc21` (stereo unspecified), the pIC50 in test [1] is 6.36; in test [2], 6.78. The same molecule gave a concentration for half-maximal inhibition (IC50) in the test on Plasmodium falciparum of 2.75 µM.

On to `Cc1onc(-c2ccccc2)c1CN(C1Cc2cc(C#N)ccc2N(Cc2cncn2C)C1)S(=O)(=O)c1ccccn1` (stereo unspecified), for which the negative-log IC50 (pIC50) in test [1] is recorded as 8.52; in test [2] it was 9.1. Moreover, inhibition in the test with Plasmodium falciparum was half-maximal at 0.112 µM (IC50).

`Cn1cnc(S(=O)(=O)N(CC(=O)NC(C)(C)C)C2Cc3cc(C#N)ccc3N(Cc3cncn3C)C2)c1` (stereo unspecified): the negative-log IC50 (pIC50) in test [1] was found to be 8.82; in test [2], 8.92. In the test on Plasmodium falciparum, this molecule had an IC50 of 0.00501 µM.

As to `Cn1cncc1CN1CC(N(CC(=O)NC(C)(C)C)S(=O)(=O)c2ccc(F)cc2)Cc2cc(C#N)ccc21` (stereo unspecified), the pIC50 in test [1] amounted to 8.12; in test [2], 7.38. Moreover, the 50% inhibitory concentration (IC50) in the test on Plasmodium falciparum is > 5.01 µM.

As for `Cn1cnc(S(=O)(=O)N(Cc2ccc3ccccc3c2Br)C2Cc3cc(C#N)ccc3N(Cc3cncn3C)C2)c1` (stereo unspecified), the pIC50 in test [1] was determined as 6; in test [2], 7.55. Further, in the test on Plasmodium falciparum, the half-inhibitory concentration (IC50) is 3.02 µM.

In the case of `Cn1cncc1CN1CC(N(Cc2ccccn2)S(=O)(=O)c2ccccn2)Cc2cc(C#N)ccc21` (stereo unspecified), the results for the pIC50 in test [1] and in test [2] were 8.42 and 8.55, respectively. In the test on Plasmodium falciparum, this molecule gave an IC50 of 0.0513 µM.

For the origin of these results see ChEMBL document CHEMBL1154458, “QSAR study on tetrahydroquinoline analogues as plasmodium protein farnesyltransferase inhibitors: a comparison of rationales of malarial and mammalian enzyme inhibitory activities for selectivity” (Eur J Med Chem, 2008).
